Source: the NIST ThermoML archive (doi:10.1016/j.fluid.2017.05.012)
Numbers after ± are expanded uncertainties.

Settings: Liquid, Ebulliometric method (Recirculating still)

In the case of `O` [water], the “vapor or sublimation pressure” value (372.9 K) is reported as 101 ± 1 kPa.

With `CCCO` [propan-1-ol] the “vapor or sublimation pressure” value (370.2 K) was 101 ± 1 kPa.

For `CCCOC(C)=O` [propyl ethanoate], the “vapor or sublimation pressure” value (374.8 K) was 101 ± 1 kPa.
